For this assay, the target named is cAMP and cAMP-inhibited cGMP 3',5'-cyclic phosphodiesterase 10A (Homo sapiens, UniProt Q9Y233). Description: PDE10A assay. The procedure, abridged: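 Scintillation proximity readout of [3H]cGMP hydrolysis (50 nM final substrate, 15 min) by 2 ng/well human PDE10A after 15 min compound preincubation at RT, pH 7.5 with MgCl2. Four-parameter logistic fit gave IC50, reported as pIC50.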
Sequence of cAMP and cAMP-inhibited cGMP 3',5'-cyclic phosphodiesterase 10A (Q9Y233 as listed by the source): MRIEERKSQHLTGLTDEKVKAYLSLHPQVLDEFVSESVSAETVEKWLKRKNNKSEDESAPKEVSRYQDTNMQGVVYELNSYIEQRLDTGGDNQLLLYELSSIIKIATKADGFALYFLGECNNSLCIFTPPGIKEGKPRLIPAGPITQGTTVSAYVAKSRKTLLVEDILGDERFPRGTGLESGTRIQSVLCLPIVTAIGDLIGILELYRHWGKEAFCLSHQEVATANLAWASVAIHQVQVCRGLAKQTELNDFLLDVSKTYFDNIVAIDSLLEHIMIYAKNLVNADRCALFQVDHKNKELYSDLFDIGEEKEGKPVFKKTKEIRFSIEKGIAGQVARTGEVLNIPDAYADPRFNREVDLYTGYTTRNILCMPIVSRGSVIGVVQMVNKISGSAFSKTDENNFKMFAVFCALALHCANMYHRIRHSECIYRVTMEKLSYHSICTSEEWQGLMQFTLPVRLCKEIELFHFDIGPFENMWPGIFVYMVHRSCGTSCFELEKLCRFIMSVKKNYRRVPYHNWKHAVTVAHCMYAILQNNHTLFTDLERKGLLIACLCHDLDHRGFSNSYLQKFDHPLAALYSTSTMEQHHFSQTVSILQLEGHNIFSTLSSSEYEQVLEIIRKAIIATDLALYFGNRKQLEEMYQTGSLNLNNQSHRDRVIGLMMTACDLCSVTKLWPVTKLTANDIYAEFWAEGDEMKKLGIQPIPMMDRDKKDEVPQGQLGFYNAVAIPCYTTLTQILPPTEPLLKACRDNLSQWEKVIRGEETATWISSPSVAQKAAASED

Usually IC50 stands for the midpoint of a concentration-inhibition curve. Take `Cc1ccccc1-c1cn2c(n1)C[C@H](NC(=O)c1c(C(=O)N3CCC3)cnn1C)CC2` [Roche-Dataset for PDE10A, Compound 495]: inhibition was half-maximal at 7.85 nM (IC50). This counts as single-digit nanomolar.

`CNC(=O)c1c(F)cc(F)cc1NC(=O)c1nc(C2CC2)cnc1Nc1cncnc1` [US8703768, 299] gave a 50% inhibitory concentration (IC50) of 0.32 nM. This IC50 lies about 25-fold lower than the previous one.

For the origin of these results see BindingDB's records for doi:10.1007/s10822-022-00478-x (Roche Innovation Center Basel, F. Hoffmann-La Roche Ltd., 2022).
